Consider four compounds from patent US4329339A, “Anthracyclinones and derivatives thereof” (Hoffmann-La Roche Inc., priority 1980, dated 1982).

Series [1] concerns Serratia marcescens IFO 12648. The experiment in a line: MIC, agar streak method, Serratia marcescens IFO 12648. The class given is cell-based. As to conditions: IFO12648, Heart infusion agar. From the text:
(§1) | (1) Heart infusion agar

In series [2] the test system is Micrococcus flavus ATCC 10240. The experiment in a line: MIC, agar streak method, Micrococcus flavus ATCC 10240. The class given is cell-based. As to conditions: ATCC10240, Heart infusion agar.
Source text: as §1

Series [3] relates to Pseudomonas aeruginosa IFO 12689. The experiment in a line: MIC, agar streak method, Pseudomonas aeruginosa IFO 12689. As to conditions: IFO12689, Heart infusion agar. Format: cell-based.
Source text: as §1

The subject of series [4] is Klebsiella pneumoniae IFO 3512. The series can be described thus: MIC, agar streak method, Klebsiella pneumoniae IFO 3512. Format: cell-based. As to conditions: IFO3512, Heart infusion agar.
Source text: as §1

The test system of another series is Bacillus cereus Ro 179B. The experiment in a line: MIC, agar streak method, Bacillus cereus Ro 179B. Format: cell-based. Particulars: RO179B, Heart infusion agar.
Source text: as §1

Series [5] concerns Bacillus subtilis IAM 1027. The experiment in a line: MIC, agar streak method, Bacillus subtilis IAM 1027. Format: cell-based. As to conditions: IAM1027, Heart infusion agar.
Source text: as §1

The test system of series [6] is Candida tropicalis ATCC 13803. The series can be described thus: MIC, agar streak method, Candida tropicalis ATCC 13803. Format: cell-based. Particulars: ATCC13803, Sabouraud dextrose agar. From the text: (§2) | (2) Sabouraud dextrose agar
Series [7] relates to Escherichia coli NIHJ IFO 12734. The experiment in a line: MIC, agar streak method, Escherichia coli NIHJ IFO 12734. The class given is cell-based. Particulars: IFO12734, Heart infusion agar.
Source text: as §1

Series [8] relates to Proteus vulgaris IAM 1025. The series can be described thus: MIC, agar streak method, Proteus vulgaris IAM 1025. Format: cell-based. As to conditions: IAM1025, Heart infusion agar.
Source text: as §1

Series [9] relates to Candida albicans ATCC 10231. The series can be described thus: MIC, agar streak method, Candida albicans ATCC 10231. Format: cell-based. Particulars: ATCC10231, Sabouraud dextrose agar.
Source text: as §2

Series [10] concerns Escherichia coli K-12 IAM 1264. The experiment in a line: MIC, agar streak method, Escherichia coli K-12 IAM 1264. Format: cell-based. Particulars: IAM1264, Heart infusion agar.
Source text: as §1

In series [11] the test system is Staphylococcus aureus 209P Stf. The experiment in a line: MIC, agar streak method, Staphylococcus aureus 209P Stf. Format: cell-based.
Series [12] has as its system Mycobacterium smegmatis IFO 13167. The series can be described thus: MIC, agar streak method, Mycobacterium smegmatis IFO 13167. Format: cell-based. Particulars: Mycolicibacterium smegmatis, IFO13167, Heart infusion agar.
Source text: as §1

For series [13], the system named is Saccharomyces cerevisiae ATCC 9763. The series can be described thus: MIC, agar streak method, Saccharomyces cerevisiae ATCC 9763. The class given is cell-based. As to conditions: ATCC9763, Sabouraud dextrose agar.
Source text: as §2

A further series has as its system Sarcina lutea IAM 1009. The experiment in a line: MIC, agar streak method, Sarcina lutea IAM 1009. Format: cell-based. Particulars: Micrococcus luteus, IAM1009, Heart infusion agar.
Source text: as §1

A further series deals with P388 leukaemia. The experiment in a line: Antitumour effect against P388 leukaemia in mice. The class given is in vivo. As to conditions: 1×10^6 P388 cells i.p., CDF1 mice. How it is done: The anthracycline glycosides provided by the present invention were tested against P388 leukaemia in mice. When CDF1 mice are inoculated with 1×10^6 cells of P388 intraperitoneally and each of the antibiotics is administered intraperitoneally on days 1, 5 and 9, the survival time of the treated mice is prolonged as shown in Table 7 hereinafter.

The test system of series [14] is Staphylococcus aureus 209P IAM 1011. The experiment in a line: MIC, agar streak method, Staphylococcus aureus 209P IAM 1011. Format: cell-based. Particulars: Heart infusion agar.
Source text: as §1

A short description of series [15]: Acute intraperitoneal toxicity in mice. Particulars: mouse, in vivo, ip, judged 72 hours after a single intraperitoneal injection.
In series [16] the test system is Staphylococcus epidermidis IFO 12993. The experiment in a line: MIC, agar streak method, Staphylococcus epidermidis IFO 12993. Format: cell-based. As to conditions: IFO12993, Heart infusion agar.
Source text: as §1

Where [17] appears, read: 1.88 mg/kg/day i.p. on days 1, 5 and 9.
The mark [18] stands for this setting: 3.75 mg/kg/day i.p. on days 1, 5 and 9.
Where [19] appears, read: 7.5 mg/kg/day i.p. on days 1, 5 and 9.
The mark [20] stands for this setting: 15 mg/kg/day i.p. on days 1, 5 and 9.
Setting [21] is: Staphylococcus aureus 209P Stf, read-out: MIC.

≈ marks a conversion by molar mass, not a printed value. Like-named read-outs stand apart in the source and are kept apart here.

As to `COC(=O)C1c2cc3c(c(O)c2C(OC2CC(N(C)C)C(OC4CC(O)C(OC5CCC(=O)C(C)O5)C(C)O4)C(C)O2)CC1(O)CC(C)=O)C(=O)c1c(O)cccc1C3=O` (stereo not shown) [Sulfurmycin A], the minimal inhibitory concentration (MIC) was more than 100 µg/mL in series [1]; 0.2 µg/mL (≈ 0.238 µM) in series [2]; more than 100 µg/mL in [3]; more than 100 µg/mL in series [4]; 0.2 µg/mL (≈ 0.238 µM) against Bacillus cereus Ro 179B; 0.78 µg/mL (≈ 0.929 µM) in series [5]. Also, the MIC in series [6] is more than 100 µg/mL; in series [7] it was more than 100 µg/mL; in series [8], more than 100 µg/mL; in [9], more than 100 µg/mL; in series [10] it was more than 100 µg/mL; in series [11] (Staphylococcus aureus, 209P), 0.2 µg/mL (≈ 0.238 µM). Also, the minimal inhibitory concentration (MIC) in series [12] was 25 µg/mL (≈ 29.8 µM); in series [13], more than 100 µg/mL; against Sarcina lutea IAM 1009, 0.1 µg/mL (≈ 0.119 µM); in series [14], 0.78 µg/mL (≈ 0.929 µM); in [16], 3.12 µg/mL (≈ 3.71 µM). Further, the “Mean survival (T/C, %)” value in the series with P388 leukaemia (setting [17]) amounted to 124%; in the series with P388 leukaemia (setting [18]), 134%; in the series on P388 leukaemia (setting [19]) it was 144%; in the series on P388 leukaemia (setting [20]), 165%. This compound also displayed an LD50 at 72 h in series [15] of approximately 100 mg/kg.

On to `COC(=O)C1c2cc3c(c(O)c2C(OC2CC(N(C)C)C(OC4CC(O)C(OC5CCC(=O)C(C)O5)C(C)O4)C(C)O2)CC1(C)O)C(=O)c1c(O)cccc1C3=O` (stereo not shown) [Auramycin A], for which the MIC in series [1] is more than 100 µg/mL; in series [2], 0.1 µg/mL (≈ 0.125 µM); in series [3], more than 100 µg/mL; in series [4], more than 100 µg/mL; in the series on Bacillus cereus Ro 179B, 0.39 µg/mL (≈ 0.489 µM); in series [5], 3.12 µg/mL (≈ 3.91 µM). The MIC in [6] is more than 100 µg/mL; in series [7] it was more than 100 µg/mL; in series [8], more than 100 µg/mL; in [9] it was more than 100 µg/mL; in series [10], more than 100 µg/mL; in series [11] (setting [21]), 0.78 µg/mL (≈ 0.978 µM). Further, the MIC in series [12] was 6.25 µg/mL (≈ 7.83 µM); in [13] it was more than 100 µg/mL; in the series with Sarcina lutea IAM 1009, 0.1 µg/mL (≈ 0.125 µM); in series [14], 1.56 µg/mL (≈ 1.96 µM); in [16], 3.12 µg/mL (≈ 3.91 µM). Besides, the “Mean survival (T/C, %)” value with P388 leukaemia (setting [17]) was 139%; in the series on P388 leukaemia (setting [18]), 129%; in the series with P388 leukaemia (setting [19]) it was 134%; in the series on P388 leukaemia (setting [20]), 170%. The compound further gave a 50% lethal dose (LD50) at 72 h in series [15] of approximately 100 mg/kg.

In the case of `COC(=O)C1c2cc3c(c(O)c2C(OC2CC(N(C)C)C(OC4CC5OC6CC(=O)C(C)OC6OC5C(C)O4)C(C)O2)CC1(O)CC(C)=O)C(=O)c1c(O)cccc1C3=O` (stereo not shown) [Sulfurmycin B], the minimum inhibitory concentration (MIC) was more than 100 µg/mL in series [1]; 0.1 µg/mL (≈ 0.119 µM) in series [2]; more than 100 µg/mL in series [3]; more than 100 µg/mL in series [4]; 0.39 µg/mL (≈ 0.465 µM) against Bacillus cereus Ro 179B; 0.78 µg/mL (≈ 0.931 µM) in [5]. The MIC in [6] was more than 100 µg/mL; in [7] it was more than 100 µg/mL; in series [8], more than 100 µg/mL; in series [9], more than 100 µg/mL; in series [10], more than 100 µg/mL; in series [11] (Staphylococcus aureus, 209P) it was 0.39 µg/mL (≈ 0.465 µM). Moreover, the MIC was 6.25 µg/mL (≈ 7.46 µM) in series [12]; more than 100 µg/mL in series [13]; 0.1 µg/mL (≈ 0.119 µM) in the series with Sarcina lutea IAM 1009; 0.78 µg/mL (≈ 0.931 µM) in series [14]; 1.56 µg/mL (≈ 1.86 µM) in series [16]. Moreover, the “Mean survival (T/C, %)” value in the series with P388 leukaemia (setting [17]) turned out to be 124%; in the series with P388 leukaemia (setting [18]), 124%; in the series on P388 leukaemia (setting [19]) it was 155%; in the series with P388 leukaemia (setting [20]) it was 165%. In series [15], this compound had an LD50 at 72 h of 25 to 50 mg/kg.

Consider `COC(=O)C1c2cc3c(c(O)c2C(OC2CC(N(C)C)C(OC4CC5OC6CC(=O)C(C)OC6OC5C(C)O4)C(C)O2)CC1(C)O)C(=O)c1c(O)cccc1C3=O` (stereo not shown) [Auramycin B], for which the MIC in [1] is more than 100 µg/mL; in series [2], 0.05 µg/mL (≈ 0.0628 µM); in series [3], more than 100 µg/mL; in series [4], more than 100 µg/mL; in the series with Bacillus cereus Ro 179B, 0.2 µg/mL (≈ 0.251 µM); in series [5] it was 0.78 µg/mL (≈ 0.98 µM). The minimum inhibitory concentration (MIC) is more than 100 µg/mL in series [6]; more than 100 µg/mL in [7]; more than 100 µg/mL in series [8]; more than 100 µg/mL in series [9]; more than 100 µg/mL in [10]; 0.39 µg/mL (≈ 0.49 µM) in [11] (setting [21]). The MIC in series [12] is 3.12 µg/mL (≈ 3.92 µM); in series [13], more than 100 µg/mL; against Sarcina lutea IAM 1009, 0.05 µg/mL (≈ 0.0628 µM); in series [14], 0.39 µg/mL (≈ 0.49 µM); in series [16] it was 1.56 µg/mL (≈ 1.96 µM). The “Mean survival (T/C, %)” value came to 113% with P388 leukaemia (setting [17]), 124% in the series on P388 leukaemia (setting [18]), 149% with P388 leukaemia (setting [19]) and 196% in the series on P388 leukaemia (setting [20]). In series [15], this compound yielded a 50% lethal dose (LD50) at 72 h of approximately 100 mg/kg.

One may read the MIC as the lowest concentration that inhibits growth of the organism. What is called LD50 is the dose at which mortality reaches 50%. Read a low LD50 as greater toxicity.
